Reference: US10227331B2 (priority 2015, dated 2019)

Columns and labels:
[1] = test system: P. aeruginosa expressing IMP-1, efflux+ (MB9798); type: cell-based, Pseudomonas aeruginosa; settings: for P. aeruginosa expressing IMP-1, efflux+ (MB9798) MITC95: imipenem at 2 μg/mL, in the presence of a class A, C, D serine β-lactamase inhibitor closely related to relebactam; for Efflux ratio: ratio MITC95 PA_9798/MITC95 PA_9799
Text: (§1) The strain background is Pseudomonas aeruginosa PAO1.

[2] = test system: P. aeruginosa expressing IMP-1, efflux− (MB9799); assay: Efflux: concentration of MBL inhibitor which restores susceptibility to imipenem; type: cell-based, Pseudomonas aeruginosa; settings: imipenem at 2 μg/mL, in the presence of a class A, C, D serine β-lactamase inhibitor closely related to relebactam
Text: as §1

[3] = test system: Serratia marcescens expressing IMP-1 (CL5741); type: cell-based; settings: with imipenem 1 μg/ml, 95% inhibition of bacterial growth
Method in brief: (§2)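 Restoration of imipenem susceptibility (1 μg/ml imipenem) was judged by absorbance after 22–24 h at 35° C. Test compound was added to bacteria suspended 1:100 in 1.1× CAMHB from overnight blood-agar cultures.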

[4] = test system: Klebsiella pneumoniae expressing VIM-1 (IHMA599644); type: cell-based; settings: with imipenem 1 μg/ml, 95% inhibition of bacterial growth
Method in brief: as §2

[5] = test system: Escherichia coli expressing NDM-1 (CLB30005, CLB30016); type: cell-based; settings: with imipenem 1 μg/ml, 95% inhibition of bacterial growth
Method in brief: as §2

NDM-1 = NDM-1 (Klebsiella pneumoniae, UniProt C7C422); assay: biochemical; type: biochemical; settings: CCF2-FA substrate, 2 hours at 25° C; read-out: NDM-1 IC50
Method in brief: (§3)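 Semi-log dose-response curves, fitted with a 4-parameter model, gave IC50s. The underlying signal was CCF2-FA fluorescence following 2 hours at 25° C with enzyme, substrate and inhibitor combined.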

IMP-1 = IMP-1 (Serratia marcescens, UniProt P52699); assay: biochemical; type: biochemical; settings: CCF2-FA substrate, 2 hours at 25° C; read-out: IMP-1 IC50
Method in brief: as §3

VIM-1 = VIM-1 (Pseudomonas aeruginosa (strain ATCC 15692 / DSM 22644 / CIP 104116 / JCM 14847 / LMG 12228 / 1C / PRS 101 / PAO1), UniProt A0A0F7KYQ8); assay: biochemical; settings: CCF2-FA substrate, 2 hours at 25° C
Method in brief: as §3

Sequence of IMP-1 (P52699 whole entry, looked up, species assumed): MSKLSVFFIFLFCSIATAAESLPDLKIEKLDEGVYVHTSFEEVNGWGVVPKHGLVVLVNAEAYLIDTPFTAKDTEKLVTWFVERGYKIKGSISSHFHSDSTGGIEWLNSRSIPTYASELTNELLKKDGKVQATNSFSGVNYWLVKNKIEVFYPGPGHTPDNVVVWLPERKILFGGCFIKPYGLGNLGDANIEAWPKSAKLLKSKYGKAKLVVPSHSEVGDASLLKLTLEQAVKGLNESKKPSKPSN
Sequence of NDM-1 (C7C422 whole entry, looked up, species assumed): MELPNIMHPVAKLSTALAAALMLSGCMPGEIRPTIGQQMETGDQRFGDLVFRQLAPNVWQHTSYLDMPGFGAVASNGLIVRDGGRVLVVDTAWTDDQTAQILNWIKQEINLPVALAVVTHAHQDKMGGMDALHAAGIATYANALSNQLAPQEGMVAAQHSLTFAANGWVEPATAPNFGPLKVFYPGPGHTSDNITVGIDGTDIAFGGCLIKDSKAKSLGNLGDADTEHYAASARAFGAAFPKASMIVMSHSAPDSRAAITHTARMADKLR

SMILES	P. aeruginosa expressing IMP-1, efflux+ (MB9798) MITC95 [1] [µM]	Efflux ratio [1]	P. aeruginosa expressing IMP-1, efflux− (MB9799) MITC95 [2] [µM]	Serratia marcescens expressing IMP-1 (CL5741) MITC95 [3] [µM]	Klebsiella pneumoniae expressing VIM-1 (IHMA599644) MITC95 [4] [µM]	Escherichia coli expressing NDM-1 (CLB30016) MITC95 [5] [µM]	IC50 (NDM-1) [pM]	IC50 (IMP-1) [pM]	IC50 (VIM-1) [pM]	Serratia marcescens MITC95 ([3]; IMP-1 (CL5741)) [µM]	Klebsiella pneumoniae MITC95 ([4]; VIM-1 (IHMA599644)) [µM]	Escherichia coli MITC95 ([5]; NDM-1 (CLB30016)) [µM]
NS(=O)(=O)c1c(S(=O)(=O)C2CNC2)ccc(-c2ccc3cn[nH]c3c2)c1-c1nnn[nH]1.O=C(O)C(F)(F)F [Example 127, 3-((4-(1H-indazol-6-yl)-2-sulfamoyl-3-(1H-tetrazol-5-yl)phenyl)sulfonyl)azetidin-1-ium 2,2,2-trifluoroacetate]	25	15.99	1.563	3.125	3.125	0.7813	430	3010	428			
Nc1nc2c(-c3ccc(SC4CNC4)c(S(N)(=O)=O)c3-c3nn[nH]n3)cccc2[nH]1 [Example 2, 3-(2-amino-1H-benzo[d]imidazol-4-yl)-6-(azetidin-3-ylthio)-2-(2H-tetrazol-5-yl)benzenesulfonamide]	6.25	4.88	1.281	1.781	6.25	0.5	2240	75800	73700			
Nc1nc2c(-c3ccc(S(=O)(=O)c4ccccn4)c(S(N)(=O)=O)c3-c3nnn[nH]3)cccc2s1 [Example 233, 3-(2-aminobenzo[d]thiazol-4-yl)-6-(pyridin-2-ylsulfonyl)-2-(1H-tetrazol-5-yl)benzenesulfonamide]	12.5	8.00	1.563	3.125	12.5	3.125	32.4	203	113			
Cn1cc2ccc(-c3ccc(S(=O)(=O)CCN)c(S(N)(=O)=O)c3-c3nnn[nH]3)cc2n1.O=C(O)C(F)(F)F [Example 154, 2-((4-(2-methyl-2H-indazol-6-yl)-2-sulfamoyl-3-(1H-tetrazol-5-yl)phenyl)sulfonyl)ethanaminium 2,2,2-trifluoroacetate]	12.5	8.00	1.563	3.125	6.25	3.125	1130	676	430			
CS(=O)(=O)c1ccc(-c2cccc3nc(N)[nH]c23)c(-c2nn[nH]n2)c1S(N)(=O)=O [Example 240, 3-(2-Amino-1H-benzo[d]imidazol-7-yl)-6-(methylsulfonyl)-2-(2H-tetrazol-5-yl) benzenesulfonamide]	50	4.00	12.5	12.5	25	3.125	4770	7460	2600			
NCCS(=O)(=O)c1ccc(-c2cccc(N3CCCC3=O)n2)c(-c2nnn[nH]2)c1S(N)(=O)=O.O=C(O)C(F)(F)F [Example 147, 2-((4-(6-(2-oxopyrrolidin-1-yl)pyridin-2-yl)-2-sulfamoyl-3-(1H-tetrazol-5-yl)phenyl)sulfonyl)ethanaminium 2,2,2-trifluoroacetate]	100	63.98	1.563	6.25	6.25	6.25	3120	4100	519			
Cc1cc(-c2ccc(S(=O)(=O)C3CNC3)c(S(N)(=O)=O)c2-c2nnn[nH]2)cnc1C#N.O=C(O)C(F)(F)F [Example 99, 3-((4-(6-cyano-5-methylpyridin-3-yl)-2-sulfamoyl-3-(1H-tetrazol-5-yl)phenyl)sulfonyl)azetidin-1-ium 2,2,2-trifluoroacetate]	200	127.96	1.563	12.5	6.25	6.25	3940	13700	536			
NCCS(=O)(=O)c1ccc(-c2ccc3nc(N)oc3c2)c(-c2nn[nH]n2)c1S(N)(=O)=O [Example 75, 3-(2-aminobenzo[d]oxazol-6-yl)-6-(2-aminoethylsulfonyl)-2-(2H-tetrazol-5-yl)benzenesulfonamide]	6.25	8.00	0.7813	1.563	1.563	1.563	500	433	283			
COC(=O)c1nc2c(-c3ccc(S(=O)(=O)C4CNC4)c(S(N)(=O)=O)c3-c3nn[nH]n3)cccc2[nH]1 [Example 252, Methyl 4-(4-(azetidin-3-ylsulfonyl)-3-sulfamoyl-2-(2H-tetrazol-5-yl)phenyl)-1H-benzo[d]imidazole-2-carboxylate]	3.125	1.00	3.125				46.4	423	209	3.125	6.25	1.563
CN1CC(S(=O)(=O)c2ccc(-c3cccc4[nH]c(N)nc34)c(-c3nn[nH]n3)c2S(N)(=O)=O)C1 [Example 52, 3-(2-amino-1H-benzo[d]imidazol-4-yl)-6-(1-methylazetidin-3-ylsulfonyl)-2-(2H-tetrazol-5-yl)benzenesulfonamide]	6.25	4.00	1.563	1.563	3.125	0.3906	222	1330	628			
CC(=O)N1CCC(S(=O)(=O)c2ccc(-c3cccc4nc(N)[nH]c34)c(-c3nn[nH]n3)c2S(N)(=O)=O)CC1 [Example 44, 6-(1-acetylpiperidin-4-ylsulfonyl)-3-(2-amino-3H-benzo[d]imidazol-4-yl)-2-(2H-tetrazol-5-yl)benzenesulfonamide]	100	32.00	3.125	6.25	25	6.25	446	1980	299			
